Molecules are shown by their SMILES.

As usually defined, the EC50 is the concentration at which the effect is half-maximal. Read a high EC50 as weaker potency.

The target of this assay is T1, human TLR7 (Homo sapiens, UniProt Q9NYK1).
T1 construct: host or cells: HEK293 (HEK-Blue hTLR7)
T1 sequence (Q9NYK1 27-1049): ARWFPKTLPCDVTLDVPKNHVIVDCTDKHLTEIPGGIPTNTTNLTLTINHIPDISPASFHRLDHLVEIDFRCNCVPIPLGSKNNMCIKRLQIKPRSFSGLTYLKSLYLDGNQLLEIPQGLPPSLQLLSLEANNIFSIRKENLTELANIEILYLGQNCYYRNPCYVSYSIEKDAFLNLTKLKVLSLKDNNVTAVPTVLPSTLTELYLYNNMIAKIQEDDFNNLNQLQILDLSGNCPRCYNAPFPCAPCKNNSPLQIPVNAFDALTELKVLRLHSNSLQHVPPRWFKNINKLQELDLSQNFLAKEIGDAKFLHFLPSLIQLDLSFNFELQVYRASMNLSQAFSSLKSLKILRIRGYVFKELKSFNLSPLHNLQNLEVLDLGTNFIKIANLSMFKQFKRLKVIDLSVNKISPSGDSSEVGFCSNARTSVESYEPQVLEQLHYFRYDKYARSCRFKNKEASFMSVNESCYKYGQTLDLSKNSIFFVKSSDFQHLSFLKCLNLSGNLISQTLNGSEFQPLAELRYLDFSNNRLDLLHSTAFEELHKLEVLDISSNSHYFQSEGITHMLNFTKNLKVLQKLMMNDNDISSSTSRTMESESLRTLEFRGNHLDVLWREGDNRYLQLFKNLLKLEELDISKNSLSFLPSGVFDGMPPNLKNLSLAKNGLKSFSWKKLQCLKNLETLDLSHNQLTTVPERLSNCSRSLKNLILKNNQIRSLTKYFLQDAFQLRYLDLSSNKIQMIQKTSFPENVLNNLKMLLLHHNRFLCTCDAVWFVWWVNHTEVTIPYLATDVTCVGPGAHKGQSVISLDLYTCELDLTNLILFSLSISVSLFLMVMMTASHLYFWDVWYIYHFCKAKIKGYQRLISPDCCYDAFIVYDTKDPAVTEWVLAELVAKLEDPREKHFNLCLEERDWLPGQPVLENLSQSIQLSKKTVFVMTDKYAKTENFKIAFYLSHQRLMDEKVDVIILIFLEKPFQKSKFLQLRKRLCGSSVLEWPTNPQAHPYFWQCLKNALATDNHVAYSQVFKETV
The experiment in a line: HEK293-Blue hTLR7 Reporter Assay (QUANTI-BLUE, SEAP readout). Format: cell-based. The following applies: HEK-Blue-hTLR7 cells, 24 hrs treatment, Table 1, B1-B232. Put shortly: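 HEK-Blue-hTLR7 cells expressing NF-κB/AP-1-driven SEAP, 4×10^4 cells/well, treated 24 h at 37° C with increasing compound concentrations. Supernatant SEAP measured with Quanti-blue substrate (10-30 min, 37° C) at 620-655 nm; EC50 from sigmoidal dose-response fit.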
On to `CCCCOc1nc(N)c2ncc(Cc3cnc(N4CCN(CC)CC4)c(C)c3)n2n1` [Compound B114, 2-butoxy-7-((6-(4-ethylpiperazin-1-yl)-5-methylpyridin-3-yl)methyl)imidazo[2,1-f][1,2,4]triazin-4-amine], for which it took 168 nM to reach a half-maximal effect (EC50). With `CCCCOc1nc(N)c2ncc(Cc3cnc(N4CCN(CCc5ccccc5)CC4)c(C)c3)n2n1` [Compound B116, 2-butoxy-7-((5-methyl-6-(4-phenethylpiperazin-1-yl)pyridin-3-yl)methyl)imidazo[2,1-f][1,2,4]triazin-4-amine] the figure was 1190 nM; with `CCC[C@@H](C)Oc1nc(N)c2ncc(Cc3cnc(N4CCNCC4)c(C)c3)n2n1` [Compound B117, (R)-7-((5-methyl-6-(piperazin-1-yl)pyridin-3-yl)methyl)-2-(pentan-2-yloxy)imidazo[2,1-f][1,2,4]triazin-4-amine], 62 nM; with `COCCOCCOc1nc(N)c2ncc(Cc3cnc(N4CCNCC4)c(C)c3)n2n1` [Compound B119, 2-(2-(2-methoxyethoxy)ethoxy)-7-((5-methyl-6-(piperazin-1-yl)pyridin-3-yl)methyl)imidazo[2,1-f][1,2,4]triazin-4-amine], > 10000 nM.

As for `COCCOCCOCCOCCOCCOCCOc1nc(N)c2ncc(Cc3cnc(N4CCNCC4)c(C)c3)n2n1` [Compound B120, 2-((2,5,8,11,14,17-hexaoxanonadecan-19-yl)oxy)-7-((5-methyl-6-(piperazin-1-yl)pyridin-3-yl)methyl)imidazo[2,1-f][1,2,4]triazin-4-amine], the EC50 is > 10000 nM. The value for `CCCCOc1nc(N)c2ncc(Cc3cnc(N4CCC(CN5CCCC5)CC4)c(C)c3)n2n1` [Compound B121, 2-butoxy-7-((5-methyl-6-(4-(pyrrolidin-1-ylmethyl)piperidin-1-yl)pyridin-3-yl)methyl)imidazo[2,1-f][1,2,4]triazin-4-amine] was 31 nM.

For `CCC[C@@H](C)Oc1nc(N)c2ncc(Cc3cnc(N4CCN(C(=O)CN(C)C)CC4)c(C)c3)n2n1` [Compound B124, (R)-1-(4-(5-((4-amino-2-(pentan-2-yloxy)imidazo[2,1-f][1,2,4]triazin-7-yl)methyl)-3-methylpyridin-2-yl)piperazin-1-yl)-2-(dimethylamino)ethan-1-one], it took 51 nM to reach a half-maximal effect (EC50).

In turn, `CCC[C@H](C)Oc1nc(N)c2ncc(Cc3cnc(N4CCN(C(=O)CN(C)C)CC4)c(C)c3)n2n1` [Compound B125, (S)-1-(4-(5-((4-amino-2-(pentan-2-yloxy)imidazo[2,1-f][1,2,4]triazin-7-yl)methyl)-3-methylpyridin-2-yl)piperazin-1-yl)-2-(dimethylamino)ethan-1-one] gave an EC50 of 2.5 nM. With `CCCCOc1nc(N)c2ncc(Cc3cnc(N4CCC(CN(CC)CC)CC4)c(C)c3)n2n1` [Compound B126, 2-butoxy-7-((6-(4-((diethylamino)methyl)piperidin-1-yl)-5-methylpyridin-3-yl)methyl)imidazo[2,1-f][1,2,4]triazin-4-amine] the figure was 22 nM. `CCC[C@@H](C)Oc1nc(N)c2ncc(Cc3cnc(N4CCC(N(C)C)CC4)c(C)c3)n2n1` [Compound B127, (R)-7-((6-(4-(dimethylamino)piperidin-1-yl)-5-methylpyridin-3-yl)methyl)-2-(pentan-2-yloxy)imidazo[2,1-f][1,2,4]triazin-4-amine] gave an EC50 of 56 nM. The molecule `CCC[C@@H](C)Oc1nc(N)c2ncc(Cc3cnc(N4CCC(CN(C)C)CC4)c(C)c3)n2n1` [Compound B128, (R)-7-((6-(4-((dimethylamino)methyl)piperidin-1-yl)-5-methylpyridin-3-yl)methyl)-2-(pentan-2-yloxy)imidazo[2,1-f][1,2,4]triazin-4-amine] came in with a concentration for a half-maximal effect (EC50) of 41 nM.

For `CCCCCCCCCCCCCCCCCC(=O)N1CCN(c2ncc(Cc3cnc4c(N)nc(OCCCC)nn34)cc2C)CC1` [Compound B129, 1-(4-(5-((4-amino-2-butoxyimidazo[2,1-f][1,2,4]triazin-7-yl)methyl)-3-methylpyridin-2-yl)piperazin-1-yl)octadecan-1-one], the concentration giving a half-maximal response (EC50) is > 10000 nM. As for `CCCCOc1nc(N)c2ncc(Cc3cnc(N4CCC(N5CCN(C)CC5)CC4)c(C)c3)n2n1` [Compound B130, 2-butoxy-7-((5-methyl-6-(4-(4-methylpiperazin-1-yl)piperidin-1-yl)pyridin-3-yl)methyl)imidazo[2,1-f][1,2,4]triazin-4-amine], the EC50 was 38 nM. `CCCCOc1nc(N)c2ncc(Cc3cnc(N4CCC5(CCNCC5)CC4)c(C)c3)n2n1` [Compound B131, 2-butoxy-7-((5-methyl-6-(3,9-diazaspiro[5.5]undecan-3-yl)pyridin-3-yl)methyl)imidazo[2,1-f][1,2,4]triazin-4-amine] came in with an EC50 of 98 nM. With `CCCCOc1nc(N)c2ncc(Cc3cnc(N4CCN[C@@H](C)C4)c(C)c3)n2n1` [Compound B132, (S)-2-butoxy-7-((5-methyl-6-(3-methylpiperazin-1-yl)pyridin-3-yl)methyl)imidazo[2,1-f][1,2,4]triazin-4-amine] the figure was 48 nM.

For the molecule `CCCC(C)Oc1nc(N)c2ncc(Cc3cnc(N4CCC(N(C)C)CC4)c(C)c3)n2n1` (stereo not shown) [Compound B133, 7-((6-(4-(dimethylamino)piperidin-1-yl)-5-methylpyridin-3-yl)methyl)-2-(pentan-2-yloxy)imidazo[2,1-f][1,2,4]triazin-4-amine], the EC50 was determined as 5.6 nM.

`CCCC(C)Oc1nc(N)c2ncc(Cc3cnc(N4CCC(CN(C)C)CC4)c(C)c3)n2n1` (stereo not shown) [Compound B134, 7-((6-(4-((dimethylamino)methyl)piperidin-1-yl)-5-methylpyridin-3-yl)methyl)-2-(pentan-2-yloxy)imidazo[2,1-f][1,2,4]triazin-4-amine] registered a half-maximal effective concentration (EC50) of 6 nM. With `CCCCNc1nc(N)c2ncc(Cc3cnc(N4CCC(N(C)C)CC4)c(C)c3)n2n1` [Compound B135, N2-butyl-7-((6-(4-(dimethylamino)piperidin-1-yl)-5-methylpyridin-3-yl)methyl)imidazo[2,1-f][1,2,4]triazine-2,4-diamine] the figure was 22 nM; with `CCCCOc1nc(N)c2ncc(Cc3cnc(N4CC(N)C4)c(C)c3)n2n1` [Compound B136, 7-((6-(3-aminoazetidin-1-yl)-5-methylpyridin-3-yl)methyl)-2-butoxyimidazo[2,1-f][1,2,4]triazin-4-amine], 4980 nM. The value for `CCCC(C)Nc1nc(N)c2ncc(Cc3cnc(N4CCC(CN(C)C)CC4)c(C)c3)n2n1` (stereo not shown) [Compound B137, 7-((6-(4-((dimethylamino)methyl)piperidin-1-yl)-5-methylpyridin-3-yl)methyl)-N2-(pentan-2-yl)imidazo[2,1-f][1,2,4]triazine-2,4-diamine] was 4.1 nM. With `CCCC(C)Nc1nc(N)c2ncc(Cc3cnc(N4CCC(N(C)C)CC4)c(C)c3)n2n1` (stereo not shown) [Compound B138, 7-((6-(4-(dimethylamino)piperidin-1-yl)-5-methylpyridin-3-yl)methyl)-N^2-(pentan-2-yl)imidazo[2,1-f][1,2,4]triazine-2,4-diamine] the figure was 5.5 nM.

For `CCCNc1nc(N)c2ncc(Cc3cnc(N4CCNCC4)c(C)c3)n2n1` [Compound B139, 7-((5-methyl-6-(piperazin-1-yl)pyridin-3-yl)methyl)-N2-propylimidazo[2,1-f][1,2,4]triazine-2,4-diamine], the midpoint of the response, the EC50, lay at 88 nM.

Consider `CCCCc1nc(N)c2ncc(Cc3cnc(N4CCNCC4)c(C)c3)n2n1` [Compound B141, 2-butyl-7-((5-methyl-6-(piperazin-1-yl)pyridin-3-yl)methyl)imidazo[2,1-f][1,2,4]triazin-4-amine], for which it took 154 nM to reach a half-maximal effect (EC50). The molecule `CCCCOc1nc(N)c2ncc(Cc3cnc(N4CCC(NC(=O)CN(C)C)CC4)c(C)c3)n2n1` [Compound B142, N-(1-(5-((4-amino-2-butoxyimidazo[2,1-f][1,2,4]triazin-7-yl)methyl)-3-methylpyridin-2-yl)piperidin-4-yl)-2-(dimethylamino)acetamidea] came in with an EC50 of 45 nM. Regarding `CCCC(CCC)Oc1nc(N)c2ncc(Cc3cnc(N4CCNCC4)c(C)c3)n2n1` [Compound B143, 2-(heptan-4-yloxy)-7-((5-methyl-6-(piperazin-1-yl)pyridin-3-yl)methyl)imidazo[2,1-f][1,2,4]triazin-4-amine], it took 7.8 nM to reach a half-maximal effect (EC50).

(Values after patent publication US12612407B2, “Imidazo[2,1-f][1,2,4]triazin-4-amine derivatives as TLR7 agonist” (BEIGENE, LTD., priority 2020, dated 2026).)
